The values below are quoted from earlier work in US5274121A, “N-methyl-N-[4-(1-pyrrolidinyl)-2-butynyl]amide congeners as muscarinic agents” (priority 1992, dated 1993).

Molecules are shown by their SMILES.

One series concerns m3 AChR. The conditions noted are these: cited from earlier work.
In the next series the test system is m4 AChR. The following applies: cited from earlier work.
Another series deals with M2 AChRs. The conditions noted are these: M2 AChR; cited from earlier work.
The subject of another series is m5 AChR. The following applies: cited from earlier work.
For another series, the system named is m2 AChR. The following applies: cited from earlier work.
The next series deals with M1 AChRs. The following applies: M1 AChR; cited from earlier work.

In the case of `CN1CCN(CC(=O)N2c3ccccc3C(=O)Nc3cccnc32)CC1` [pirenzepine], the affinity for pirenzepine entry was “intermediate affinity” with m3 AChR; “high affinity” in the series with m4 AChR; “low-affinity” in the series with M2 AChRs; “intermediate affinity” in the series on m5 AChR; “low affinity” with m2 AChR; “high-affinity” with M1 AChRs.
